# Molecular target: T1, Peptidyl-prolyl cis-trans isomerase ESS1 (Saccharomyces cerevisiae (strain ATCC 204508 / S288c), UniProt P22696)
# T1 sequence (P22696 whole entry): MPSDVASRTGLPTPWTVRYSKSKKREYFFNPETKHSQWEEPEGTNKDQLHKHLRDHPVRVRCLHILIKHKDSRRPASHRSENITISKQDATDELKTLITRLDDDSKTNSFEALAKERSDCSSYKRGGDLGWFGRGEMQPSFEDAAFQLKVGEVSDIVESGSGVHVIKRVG
# Test: Pin1 Inhibition Assay
# Details: pH 7; 0 °C
# Description: Assay was carried out measuring the MCA fluorescence using Suc-Ala-Glu-Pro-Phe-MCA as substrate purchased from Japan Peptide Institute Co.
row,SMILES,IC50
1,"Cc1ccc(-c2cc([C@H]3[C@@H]4C=CCC[C@@]4(C)C(=O)N3Cc3ccccc3)ccc2F)cc1 [(3R,3aR,7aR)-3-[4-fluoro-3-(4-methylphenyl)phenyl]-7a-methyl-2-(phenylmethyl)-3,3a,6,7-tetrahydroisoindol-1-one]",5 µM
2,"CC[C@@H]1CC=C[C@H]2[C@H]1C(=O)N(Cc1ccccc1)[C@H]2c1ccc(OC)c(Cl)c1 [(3R,3aS,7R,7aS)-3-(3-chloranyl-4-methoxy-phenyl)-7-ethyl-2-(phenylmethyl)-3a,6,7,7a-tetrahydro-3H-isoindol-1-one]",2 µM
3,CC(C)C[C@H](NC(=O)c1[nH]cnc1C(=O)N[C@@H](C)C(=O)OC(C)(C)C)C(=O)OCc1ccccc1 [(phenylmethyl) (2S)-4-methyl-2-[[4-[[(2S)-1-[(2-methylpropan-2-yl)oxy]-1-oxidanylidene-propan-2-yl]carbamoyl]-1H-imidazol-5-yl]carbonylamino]pentanoate],> 10 µM
4,"COc1ccc(Br)cc1[C@H]1[C@@H]2C=CCC[C@@]2(C)C(=O)N1Cc1ccccc1 [(3R,3aR,7aR)-2-benzyl-3-(5-bromo-2-methoxy-phenyl)-7a-methyl-3,3a,6,7-tetrahydroisoindol-1-one]",5 µM
5,"CC(C)C[C@H](NC(=O)c1[nH]cnc1C(=O)N1CCc2ccccc2C1)C(=O)OCc1ccccc1 [(2S)-2-[[[5-[3,4-dihydro-1H-isoquinolin-2-yl(oxo)methyl]-1H-imidazol-4-yl]-oxomethyl]amino]-4-methylpentanoic acid (phenylmethyl) ester]",> 1.5 µM
6,COc1ccccc1-c1cc(=O)c2c(O)ccc([N+](=O)[O-])c2o1 [MLS000518626],> 10 µM
7,COc1ccc(C2/C=C\CN(C(=O)c3ccccc3)CC(=O)N2Cc2ccc(F)cc2)cc1 (stereo not drawn),> 10 µM
8,Cc1cccc(NC(=O)c2[nH]cnc2C(=O)N[C@@H](CCCCNC(=O)OC(C)(C)C)C(=O)OC(C)(C)C)c1 [ILP-IV-14],> 10 µM

# Continued, values first:
row,IC50,SMILES
1,1.5 µM,"C[C@@]12CCC=C[C@H]1[C@H](c1ccc3ccccc3c1Br)N(Cc1ccccc1)C2=O [(3R,3aR,7aR)-3-(1-bromanylnaphthalen-2-yl)-7a-methyl-2-(phenylmethyl)-3,3a,6,7-tetrahydroisoindol-1-one]"
2,> 10 µM,"O=C(O)CN1C(=O)c2cccc3cccc(c23)C1=O [(1,3-dioxo-1H-benzo[de]isoquinolin-2(3H)-yl)acetic acid]"
3,2.5 µM,CCOC(=O)c1ccc(NC(=O)c2[nH]cnc2C(=O)N[C@@H](CCCCNC(=O)OC(C)(C)C)C(=O)OC(C)(C)C)cc1 [MLS000849609]
4,5 µM,"COc1ccc(C2CC(O)(c3ccccc3)Oc3c(C)ccc(C)c32)cc1 (stereo not drawn) [4-(4-methoxyphenyl)-5,8-dimethyl-2-phenyl-chroman-2-ol]"
5,> 10 µM,CCOC(=O)c1ccc(NC(=O)c2[nH]cnc2C(=O)N[C@@H](Cc2ccccc2)C(=O)OC(C)(C)C)cc1 [ethyl 4-[[5-[[(2S)-1-[(2-methylpropan-2-yl)oxy]-1-oxidanylidene-3-phenyl-propan-2-yl]carbamoyl]-1H-imidazol-4-yl]carbonylamino]benzoate]
